{"source": "the supplement of paper PMC10307832", "test_in_all_cases": "relative viability (nuclei count vs DMSO), 5 days (fraction); higher = more cells survive", "key": {"Apatinib + Crizotinib": {"compound": "N#CC1(c2ccc(NC(=O)c3cccnc3NCc3ccncc3)cc2)CCCC1 [Apatinib] + C[C@@H](Oc1cc(-c2cnn(C3CCNCC3)c2)cnc1N)c1c(Cl)ccc(F)c1Cl [Crizotinib] (partner 1 µM)", "procedure,_shortened": "(§1)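 Values are medians from duplicate plates. Each reflects relative viability, defined as the nuclei count of treated wells over that of vehicle wells. Lung cancer cell lines in 1536-well plates were pin-tool dosed one day after seeding with one drug alone or with a fixed anchor-drug dose plus five library-drug doses (not always all listed) in √10 steps, then fixed, stained and imaged at 4× after 5 days.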"}, "Metformin + Phenformin": {"compound": "CN(C)C(=N)NC(=N)N [Metformin] + N=C(N)NC(=N)NCCc1ccccc1 [Phenformin] (partner 250 µM)", "procedure,_shortened": "as §1"}, "Metformin + AZD7762": {"compound": "CN(C)C(=N)NC(=N)N [Metformin] + NC(=O)Nc1cc(-c2cccc(F)c2)sc1C(=O)N[C@H]1CCCNC1 [AZD7762] (partner 0.2 µM)", "procedure,_shortened": "as §1"}, "Metformin + Pemetrexed": {"compound": "CN(C)C(=N)NC(=N)N [Metformin] + Nc1nc2[nH]cc(CCc3ccc(C(=O)N[C@@H](CCC(=O)O)C(=O)O)cc3)c2c(=O)[nH]1 [Pemetrexed] (partner 0.2 µM)", "procedure,_shortened": "as §1"}}}
{"cell line": "NCI-H460", "values": [{"measurement": "relative viability", "setting": "Apatinib + Crizotinib; first compound 0.08 µM", "value": 1.04}, {"measurement": "relative viability", "setting": "Apatinib + Crizotinib; first compound 0.253 µM", "value": 0.907}, {"measurement": "relative viability", "setting": "Apatinib + Crizotinib; first compound 0.8 µM", "value": 0.727}, {"measurement": "relative viability", "setting": "Apatinib + Crizotinib; first compound 2.53 µM", "value": 0.848}, {"measurement": "relative viability", "setting": "Apatinib + Crizotinib; first compound 8 µM", "value": 0.857}, {"measurement": "relative viability", "setting": "Metformin + Phenformin; first compound 10 µM", "value": 0.426}, {"measurement": "relative viability", "setting": "Metformin + Phenformin; first compound 31.62 µM", "value": 0.541}, {"measurement": "relative viability", "setting": "Metformin + Phenformin; first compound 100 µM", "value": 0.516}, {"measurement": "relative viability", "setting": "Metformin + Phenformin; first compound 316.23 µM", "value": 0.509}, {"measurement": "relative viability", "setting": "Metformin + Phenformin; first compound 1000 µM", "value": 0.523}, {"measurement": "relative viability", "setting": "Metformin + AZD7762; first compound 31.62 µM", "value": 0.632}, {"measurement": "relative viability", "setting": "Metformin + AZD7762; first compound 100 µM", "value": 0.676}, {"measurement": "relative viability", "setting": "Metformin + AZD7762; first compound 316.23 µM", "value": 0.433}, {"measurement": "relative viability", "setting": "Metformin + AZD7762; first compound 1000 µM", "value": 0.553}, {"measurement": "relative viability", "setting": "Metformin + Pemetrexed; first compound 31.62 µM", "value": 0.0599}, {"measurement": "relative viability", "setting": "Metformin + Pemetrexed; first compound 100 µM", "value": 0.0625}, {"measurement": "relative viability", "setting": "Metformin + Pemetrexed; first compound 316.23 µM", "value": 0.0535}, {"measurement": "relative viability", "setting": "Metformin + Pemetrexed; first compound 1000 µM", "value": 0.0639}]}
